The values below come from patent publication US20210300943A1, “OGA INHIBITOR COMPOUNDS” (Janssen Pharmaceutica NV, priority 2018, published 2021).

Structures are written as SMILES.

The test addresses T1, OGA (Homo sapiens, UniProt O60502).
T1 construct: endogenous in cells; host or cells: HEK293 cells inducible for P301L mutant human Tau (2N4R)
T1 sequence (O60502 1-916): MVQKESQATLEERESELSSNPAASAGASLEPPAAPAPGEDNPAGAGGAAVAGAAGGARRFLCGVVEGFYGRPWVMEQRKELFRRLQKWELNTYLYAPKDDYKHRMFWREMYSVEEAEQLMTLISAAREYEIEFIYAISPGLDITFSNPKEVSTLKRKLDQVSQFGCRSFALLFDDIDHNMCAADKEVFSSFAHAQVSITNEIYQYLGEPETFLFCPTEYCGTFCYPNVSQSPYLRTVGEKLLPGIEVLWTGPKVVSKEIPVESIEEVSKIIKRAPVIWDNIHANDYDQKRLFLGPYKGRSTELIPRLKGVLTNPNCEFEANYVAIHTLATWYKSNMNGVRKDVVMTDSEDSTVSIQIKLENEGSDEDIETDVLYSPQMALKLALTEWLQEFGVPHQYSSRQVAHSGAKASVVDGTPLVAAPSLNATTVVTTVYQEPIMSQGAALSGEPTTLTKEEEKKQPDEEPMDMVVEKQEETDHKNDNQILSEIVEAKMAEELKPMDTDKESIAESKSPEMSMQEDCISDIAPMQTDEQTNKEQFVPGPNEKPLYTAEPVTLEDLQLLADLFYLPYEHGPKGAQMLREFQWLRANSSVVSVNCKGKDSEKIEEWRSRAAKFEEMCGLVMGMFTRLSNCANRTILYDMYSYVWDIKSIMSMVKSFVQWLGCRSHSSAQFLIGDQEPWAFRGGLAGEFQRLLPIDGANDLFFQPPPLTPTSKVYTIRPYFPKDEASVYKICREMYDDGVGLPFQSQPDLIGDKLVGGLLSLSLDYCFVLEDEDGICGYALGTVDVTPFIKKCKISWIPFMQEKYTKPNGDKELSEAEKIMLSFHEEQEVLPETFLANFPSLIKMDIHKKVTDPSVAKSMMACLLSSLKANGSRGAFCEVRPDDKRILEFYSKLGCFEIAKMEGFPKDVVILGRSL
Kind of test: OGA cellular assay (ICC detection of O-GlcNAcylated proteins in HEK293 cells inducible for P301L mutant human Tau). To be noted: for EC50: 6 hours incubation, read-out: Cellular hOGA, pEC50 (converted). The class given is cell-based. Summed up: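 HEK293 cells inducible for P301L Tau, in low-glucose assay medium, treated 6 h with compound at 0.2% DMSO. O-GlcNAcylated proteins detected by CTD110.6 immunostaining, imaged at 488 nm with Hoechst nuclear counts for toxicity. IC50 from non-linear regression, 200 uM Thiamet G as maximum.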

[1] abbreviates: HEK293 cells inducible for P301L mutant human Tau.

In the case of `Cc1cc(OC[C@H]2CCCN(C(C)c3nc4c(cc3F)OCCO4)C2)cc(C)n1` (single isomer, unassigned) [Product 155], under setting [1], the EC50 was 2.57 nM. Further, the “Cellular Emax (%)” value (HEK293 cells inducible for P301L mutant human Tau, maximal effect, Thiamet G 200 uM as maximum) is 95%.

With `Cc1cc([C@H]2CCCN(C(C)c3cnc4c(c3)OCCN4)C2)cc(C)n1` (single isomer, unassigned) [Product 135], the Emax (usually the maximal effect, on the per cent scale that the assay sets) (HEK293, HEK293 cells inducible for P301L mutant human Tau, maximal effect, Thiamet G 200 uM as maximum) worked out at 68%. Under setting [1], the EC50 is 25.1 nM.
